Measurements taken from patent US20200046811A1, “METHODS AND COMPOSITIONS FOR MODULATING FGF23 LEVELS” (Northwestern University, priority 2014, published 2020).

Assays:
[1] = system: Recombinant human FGF23; assay: In vitro protease reactions: FGF23 proteolysis by t-PA or uPA (silver stained SDS-PAGE, western blot); format: biochemical
Excerpt: (§1) Recombinant human t-PA, uPA, and stable PAI-1 were obtained from Molecular Innovations Inc., Novi, Mich. Recombinant Human FGF23 was obtained from R and D Systems Inc., Minneapolis Minn.
The 6×His tag antibody was obtained from Abcam Inc., Cambridge Mass., and the FGF23 antibody was obtained from Santa Cruz Biotechnology Inc., Dallas Tex. Secondary HRP conjugated donkey anti goat (cross-adsorbed) and goat anti-rabbit antibodies were obtained from Bethyl Laboratories Inc., Montgomery, Tex., and Molecular Innovations Inc. respectively. 4-12% NuPAGE Bis-Tris Gels, PVDF iblot gel transfer stacks, 4×NuPAGE LDS sample buffer and 10×NuPAGE sample reducing agent were from Life Technologies Inc., Carlsbad, Calif. Luminata Forte Western HRP Substrate detection reagent was from EMD Millipore Inc., Billerica, Mass.
(§2) Gels were silver stained using the Pierce Silver Stain Kit from Thermo Fisher Scientific Inc. Waltham, Mass., according to the manufacturer's protocol.
Recombinant human FGF23 (1-1.5 μg) was incubated at 37° C. for 4 hours (or other time point indicated) with either recombinant human t-PA (1.1 μg) or uPA (1.1 μg), (in addition to 1.70 μg of recombinant human stable PAI-1 where indicated) in reaction buffer (25 μl final volume) containing: 50 mM Tris-HCl pH 8.0, 150 mM NaCl, 200 mM CHAPS, 0.1% PEG-8000, and 1% DMSO. […]

[2] = system: Klotho (kl/kl) mice; assay: TM5441 treatment of Klotho mice, plasma FGF23 by ELISA; format: in vivo; conditions: 100 mg/kg/day in chow for 120 days, C-Term ELISA (FIG. 1)
Method: Four week old Klotho (kl/kl) mice (n=11) were administered TM5441 at the dose of 100 mg/kg/day for 120 days. The chow diet containing the inhibitor was prepared by mixing a homogenous suspension of TM5441 made in 0.5% Carboxy Methyl Cellulose into the powder chow diet (Harland Teklad LM-485 number 7012). The plasma levels of FGF23 was measured using an ELISA kit (Immutopics, Inc. Mouse/Rat FGF-23 (C-Term) ELISA Kit, Cat. #60-6300) by following the manufacturer's protocol.

[3] = biological target: T1, recombinant human stable PAI-1 (Homo sapiens, UniProt P05121, K177T/M377I/N173H/Q342L); assay: In vitro FGF23 proteolysis by t-PA with PAI-1 and added TM5441; format: biochemical; conditions: TM5441 added to t-PA + PAI-1 reaction, 4 hours at 37° C., silver stained SDS-PAGE, FIG. 3
T1 construct: purchased Molecular Innovations Inc., Novi, Mich
T1 sequence (P05121 24-402 N173H/K177T/Q342L/M377I): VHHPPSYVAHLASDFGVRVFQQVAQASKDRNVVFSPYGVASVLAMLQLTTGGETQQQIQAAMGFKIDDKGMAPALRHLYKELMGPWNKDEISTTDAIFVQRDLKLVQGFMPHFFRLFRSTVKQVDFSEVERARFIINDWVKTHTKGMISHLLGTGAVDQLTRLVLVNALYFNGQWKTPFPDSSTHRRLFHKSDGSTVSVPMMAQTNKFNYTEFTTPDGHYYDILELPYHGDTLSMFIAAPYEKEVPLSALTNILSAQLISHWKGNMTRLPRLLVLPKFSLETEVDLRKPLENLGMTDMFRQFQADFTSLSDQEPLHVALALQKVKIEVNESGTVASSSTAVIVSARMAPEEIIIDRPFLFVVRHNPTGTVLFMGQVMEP
Method: as §1
TM5441 was obtained from Toshio Miyata, M. D., Ph.D. and Renascience, Inc. A stock solution of 2.5 mM was prepared in DMSO.
as §2
Recombinant human FGF23 (1-1.5 μg) was incubated at 37° C. for 4 hours (or other time point indicated) with either recombinant human t-PA (1.1 μg) or uPA (1.1 μg), (in addition to 1.70 μg of recombinant human stable PAI-1 where indicated) in reaction buffer (25 μl final volume) containing: 50 mM Tris-HCl pH 8.0, 150 mM NaCl, 200 mM CHAPS, 0.1% PEG-8000, and 1% DMSO. To terminate the reaction, samples were incubated at 95° C. for 5 minutes in the presence of 1×NuPAGE LDS sample buffer and 1× NuPAGE sample reducing agent.

| Molecule | FGF23 proteolytic cleavage (smaller fragments on silver stained SDS-PAGE gel) ([1]; 4 hours at 37° C., FIG. 2) | FGF23 fragments by western blot ([1]; t-PA, various time points at 37° C., N-term and C-term fragments, FIG. 4) | FGF23 plasma levels [2] | Effect on PAI-1-inhibited FGF23 proteolysis by t-PA [3] |
| --- | --- | --- | --- | --- |
| t-PA: Recombinant human t-PA (tissue plasminogen activator) from Molecular Innovations Inc. | smaller fragments are generated | confirmed to be of FGF23 origin | – | – |
| O=C(COCC(=O)Nc1ccc(Cl)cc1C(=O)O)Nc1cccc(-c2ccoc2)c1 [TM5441] | – | – | markedly reduced | restored |
